# Assays:
# ECO 190317 [1] = assay: MIC, broth microdilution (CLSI), substance alone or ATB combined with compound at 4 or 8 μg/mL; format: cell-based, E. coli; conditions: Escherichia coli; substance alone; ECO 190317; read-out: MIC
# How it was run: (§1)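 Antibiotic MICs were determined in presence of fixed compound at 4 or 8 μg/mL, and compound MICs alone, by visual growth inhibition. Inoculum 5·10^5 CFU/mL in ca-MHB, incubated 35 °C for 16-20 h per CLSI-M7-A7. Glucose-6-phosphate (25 μg/ml) added when fosfomycin was tested.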
# ECO UFR39 = assay: as above; format: cell-based, E. coli; conditions: Escherichia coli; substance alone; ECO UFR39; read-out: MIC
# How it was run: as §1
# KPN BAA-1898 = assay: as above; format: cell-based, K. pneumoniae; conditions: Klebsiella pneumoniae, BAA1898; substance alone; KPN BAA-1898; read-out: MIC
# How it was run: as §1
# KPN UFR42 = assay: as above; format: cell-based, K. pneumoniae; conditions: Klebsiella pneumoniae; substance alone; KPN UFR42; read-out: MIC
# How it was run: as §1
# ECL P99 [2] = assay: as above; format: cell-based, E. cloacae; conditions: Enterobacter cloacae; substance alone; ECL P99; read-out: MIC
# How it was run: as §1
# PAE 105250 = assay: as above; format: cell-based, P. aeruginosa; conditions: PAE 105250; for MIC ATB combined with compound: compound @4 μg/ml
# How it was run: as §1
# PAE UFR48 [3] = assay: as above; format: cell-based, P. aeruginosa; conditions: PAE UFR48; for MIC ATB combined with compound: compound @4 μg/ml
# How it was run: as §1
# PAE UFR90 [4] = assay: as above; format: cell-based, P. aeruginosa; conditions: PAE UFR90; for MIC ATB combined with compound: compound @4 μg/ml
# How it was run: as §1
# SAU 29213 = assay: as above; format: cell-based, S. aureus; conditions: for MIC ATB combined with compound: compound @4 μg/ml, SAU 29213
# How it was run: as §1
# SPN 49619 = assay: as above; format: cell-based, S. pneumoniae; conditions: SPN 49619; for MIC ATB combined with compound: compound @4 μg/ml
# How it was run: as §1
# PAE UFR48 [5] = assay: Fractional Inhibitory Concentration Index, checkerboard assay; format: cell-based, P. aeruginosa
# Experimental: (§2) Method 2: Determination of the Fractional Inhibitory Concentration Index
# (§3) Serial 2-fold dilutions of each antibiotic tested were prepared in ca-MHB and mixed in each well of a 96-well microtiter plate so that each row (and column) contained a fixed amount of one agent and increasing amounts of the second agent. The range of drug concentrations used in the checkerboard analysis was such that the dilution range encompassed the MIC for each drug used in the analysis. Broth microdilution plates were inoculated with each strain (Table 3) to yield 5.10^5 CFU/mL in a 100 μL final volume and incubated for 18 h at 35° C. in ambient air. Assays including Fosfomycin were supplemented with 25 μg/ml of Glucose-6-phosphate. MICs were determined after overnight incubation, and the fractional inhibitory concentration (FIC) index was calculated for each well. The FIC index (FICI) was calculated for each combination according to the equation FICI=FICa+FICb=(MIC of drug A in combination/MIC of drug A alone)+(MIC of drug B in combination/MIC of drug B alone). The FICI was interpreted as follows: synergy, FICI […]; indifference, 0.5<FIC<4; and antagonism, FICI>4. The checkerboard assays were performed in duplicate.
# PAE UFR90 [6] = assay: as above; format: cell-based, P. aeruginosa
# Experimental: as §2, §3
# KPN UFR68 = assay: as above; format: cell-based, K. pneumoniae
# Experimental: as §2, §3
# ECL P99 [7] = assay: as above; format: cell-based, E. cloacae
# Experimental: as §2, §3
# ECO 190317 [8] = assay: as above; format: cell-based, E. coli
# Experimental: as §2, §3
# [9] = Pseudomonas aeruginosa, substance alone, read-out: MIC
compound,measurement,setting,value
"NC[C@@H]1C(c2ncco2)=C[C@@H]2CN1C(=O)N2OS(=O)(=O)[O-].O=C(O)C(F)(F)F.[Na+] [Example 5, Sodium and 2,2,2-trifluoroacetate [(2S,5R)-2-(azaniumylmethyl)-7-oxo-3-oxazol-2-yl-1,6-diazabicyclo[3.2.1]oct-3-en-6-yl] Sulfate]",MIC,ECO 190317 [1],≤ 0.016 µg/mL
same,MIC,ECO UFR39,≤ 0.016 µg/mL
same,MIC,KPN BAA-1898,16 µg/mL
same,MIC,KPN UFR42,32 µg/mL
same,MIC,ECL P99 [2],≤ 0.016 µg/mL
same,MIC ATB combined with compound,PAE 105250; ATB ATM,<0.031 µg/mL
same,MIC ATB combined with compound,PAE 105250; ATB FEP,<0.031 µg/mL
same,MIC ATB combined with compound,PAE 105250; ATB FOS,16 µg/mL
same,MIC ATB combined with compound,PAE 105250; ATB MEM,<0.031 µg/mL
same,MIC ATB combined with compound,PAE 105250; ATB PIP,<0.031 µg/mL
same,MIC,PAE 105250; [9],4 µg/mL
same,MIC ATB combined with compound,PAE UFR48 [3]; ATB ATM,<0.031 µg/mL
same,MIC ATB combined with compound,PAE UFR48 [3]; ATB FEP,<0.031 µg/mL
same,MIC ATB combined with compound,PAE UFR48 [3]; ATB FOS,4 µg/mL
same,MIC ATB combined with compound,PAE UFR48 [3]; ATB MEM,<0.031 µg/mL
same,MIC ATB combined with compound,PAE UFR48 [3]; ATB PIP,<0.031 µg/mL
same,MIC,PAE UFR48 [3]; [9],2 µg/mL
same,MIC ATB combined with compound,PAE UFR90 [4]; ATB ATM,<0.031 µg/mL
same,MIC ATB combined with compound,PAE UFR90 [4]; ATB FEP,<0.031 µg/mL
same,MIC ATB combined with compound,PAE UFR90 [4]; ATB FOS,<0.125 µg/mL
same,MIC ATB combined with compound,PAE UFR90 [4]; ATB MEM,<0.031 µg/mL
same,MIC ATB combined with compound,PAE UFR90 [4]; ATB PIP,<0.031 µg/mL
same,MIC,PAE UFR90 [4]; [9],0.25 µg/mL
same,MIC ATB combined with compound,SAU 29213; ATB ATM,>32 µg/mL
same,MIC ATB combined with compound,SAU 29213; ATB FEP,2 µg/mL
same,MIC ATB combined with compound,SAU 29213; ATB FOS,0.5 µg/mL
same,MIC ATB combined with compound,SAU 29213; ATB MEM,<=0.031 μg/mL
same,MIC ATB combined with compound,SAU 29213; ATB PIP,2 µg/mL
same,MIC,"SAU 29213; Staphylococcus aureus, substance alone, SAU 29213 (MSSA 29213), read-out: MIC",> 32 µg/mL
same,MIC ATB combined with compound,SPN 49619; ATB ATM,>32 µg/mL
same,MIC ATB combined with compound,SPN 49619; ATB FEP,0.063 µg/mL
same,MIC ATB combined with compound,SPN 49619; ATB FOS,16 µg/mL
same,MIC ATB combined with compound,SPN 49619; ATB MEM,0.063 µg/mL
same,MIC ATB combined with compound,SPN 49619; ATB PIP,0.5 µg/mL
same,MIC,"SPN 49619; Streptococcus pneumoniae, substance alone, read-out: MIC",> 32 µg/mL
same,FIC index min,PAE UFR48 [5]; compound +ATM,0.34
same,FIC index min,PAE UFR48 [5]; compound +FEP,0.33
same,FIC index min,PAE UFR48 [5]; compound +FOS,0.88
same,FIC index min,PAE UFR48 [5]; compound +MEM,0.63
same,FIC index min,PAE UFR48 [5]; compound +PIP,0.52
same,FIC index min,PAE UFR90 [6]; compound +ATM,0.76
same,FIC index min,PAE UFR90 [6]; compound +FEP,0.69
same,FIC index min,PAE UFR90 [6]; compound +FOS,0.69
same,FIC index min,PAE UFR90 [6]; compound +MEM,0.81
same,FIC index min,PAE UFR90 [6]; compound +PIP,0.56
same,FIC index min,KPN UFR68; compound +ATM,≤0.008
same,FIC index min,KPN UFR68; compound +FEP,≤0.0098
same,FIC index min,KPN UFR68; compound +FOS,0.203
same,FIC index min,KPN UFR68; compound +MEM,0.020
same,FIC index min,KPN UFR68; compound +PIP,≤0.035
same,FIC index min,ECL P99 [7]; compound +ATM,0.23
same,FIC index min,ECL P99 [7]; compound +FEP,0.23
same,FIC index min,ECL P99 [7]; compound +FOS,0.16
same,FIC index min,ECL P99 [7]; compound +MEM,0.63
same,FIC index min,ECL P99 [7]; compound +PIP,0.32
same,FIC index min,ECO 190317 [8]; compound +ATM,0.52
same,FIC index min,ECO 190317 [8]; compound +FEP,0.25
same,FIC index min,ECO 190317 [8]; compound +FOS,0.66
same,FIC index min,ECO 190317 [8]; compound +MEM,0.76
same,FIC index min,ECO 190317 [8]; compound +PIP,≤0.56

# Source: US20200024278A1, “COMPOSITION COMPRISING ANTIBIOTIC COMPOUND AND AN HETEROCYCLIC COMPOUND AND THEIR USE IN PREVENTING OR TREATING BACTERIAL INFECTIONS” (MUTABILIS, priority 2016, published 2020)
